In article PMC7915867, “Discovery of a Small Molecule Inhibitor of Human Adenovirus Capable of Preventing Escape from the Endosome” (International Journal of Molecular Sciences, 2021):
Where “and” joins values, the source holds several entries; their conditions need not be identical. Identical values can stand only once.

Columns and labels:
HAdV5-GFP [1] = experiment: microbe, parasite or virus in culture; type: cell-based, human adenovirus
Protocol: Compounds were measured at concentrations of 10 μM and in a dose−response assay ranging from 10 to 0.3 μM using low MOI infections (0.06 vp/cell) in a plaque assay. […] Cells were infected with HAdV5-GFP (0.06 vp/cell) and rocked for 2 h at 37 °C, when cells reached 80%–90% confluency. When the incubation was finished, the inoculum was removed followed by washing the cells once with PBS. […] The compounds were also added to the mixture in concentrations ranging from 10 to 0.3 μM. After incubation for 7 days at 37 °C, we scanned plates with a Typhoon FLA 9000 imager (GE Healthcare Life Sciences, MA, USA) and quantified plaques with ImageJ [47].

[2] = Cytotoxicity assay (AlamarBlue); type: cell-based; details: human, A549 cells, A549 cell line
Protocol: The cytotoxicity of these derivatives was tested by commercial kit AlamarBlue® (Ref. DAL1025, Invitrogen, MA, USA). […] The cytotoxic concentration 50 (CC50) value was obtained by using the statistical package GraphPad Prism. This assay was performed in duplicate.

wild-type HAdV5 [3] = experiment: Virus yield reduction (virus burst assay); type: cell-based, human adenovirus
Protocol: After 48 h, cells were harvested and subjected to three rounds of freeze/thaw. Serial dilutions of clarified lysates were titrated on A549 cells (3 × 10^4 cells/well), and we calculated TCID50 values using an endpoint dilution method.

HAdV-5 DNA replication = experiment: HAdV DNA quantification by real-time PCR (DNA replication); type: cell-based, human adenovirus; details: Human adenovirus sp., A549, 24 h; read-out: Inhibition of HAdV-5 DNA replication (qPCR)
Protocol: All samples were carried out in duplicate. After incubation for 24 h at 37 °C, DNA was purified from the cell lysate with the E.Z.N.A.® Tissue DNA Kit (Omega Bio-tek, Norcross, GA, USA) following the manufacturer’s instructions. TaqMan primers and probes for a common region of the HAdV5 hexon were designed with the GenScript Real-Time PCR (TaqMan) Primer Design software (GenScript, Leiden, Netherlands). Oligonucleotides sequences were: AQ1: 5′-GCCACGGTGGGGTTTCTAAACTT-3′; AQ2: 5′-GCCCCAGTGGTCTTACATGCACAT-3′; Probe: 6-FAM-5′-TGCACCAGACCCGGGCTCAGGTACTCCGA-3′-TAMRA. Real-time PCR mixtures contained 9.5 μL of the purified DNA, AQ1 and AQ2 at a concentration of 200 nM each and Probe at a concentration of 50 nM in a total volume of 25 μL. The PCR cycling protocol was 95 °C for 3 min followed by 40 cycles of 95 °C for 10 s and 60 °C for 30 s. Human glyceraldehyde-3-phosphate dehydrogenase (GAPDH) gene was applied as internal control. Oligonucleotides sequences for GAPDH and conditions were previously reported by Rivera et al..
For quantification, gene fragments from hexon and GAPDH were cloned into the pGEM-T Easy vector (Promega, MA, USA), and known concentrations of template were used to produce a standard curve in parallel for each experiment. All assays were done in thermal cycler LightCycler® 96 System (Roche, Basel, Switzerland).

wild-type HAdV5 [4] = experiment: Nuclear-associated HAdV genomes; type: cell-based, human adenovirus; details: 45 min postinfection, A549 cells, 2000 vp/cell, 10-fold IC50
Protocol: The nuclear delivery of HAdV genomes was evaluated by real-time PCR following nuclear isolation from infected cells. […] Forty-five minutes after infection, A549 cells were trypsinized, collected, and then washed twice with PBS. After that, we separated cytoplasmic and nuclear fractions using a hypotonic buffer solution and NP-40 detergent and resuspended the cell pellet in 500 μL of 1 × hypotonic buffer (20 mM Tris-HCl pH 7.4, 10 mM NaCl, 3 mM MgCl2). After incubation for 15 min at 4 °C, 25 μL of NP-40 was added and the samples were vortexed. The homogenates were centrifuged for 10 min at 835g and 4 °C. After the removal of the cytoplasmic fraction (supernatant), HAdV DNA was separated from the nuclear fraction (pellet) and from the cytoplasmic fraction using the E.Z.N.A.® Tissue DNA Kit (Omega Bio-tek, Norcross, GA, USA).

HAdV5-GFP [5] = experiment: Time of addition assay; type: cell-based, human adenovirus; details: 10-fold IC50; 293β5 cells, HAdV5-GFP 2000 vp/cell
HAdV5 = experiment: HAdV-mediated endosome disruption (α-sarcin co-delivery assay); type: cell-based, human adenovirus; details: A549 cells, 10-fold IC50, virus below 12 ng
Protocol: A549 cells (~20,000 cells/well) were incubated in DMEM without cysteine or methionine supplemented with 10% dialyzed FBS [DMEM (−)] in black 96-well plates for 1 h before infection. […] The medium was then removed and replaced with 50 μL DMEM (−) containing 0.1 mg/mL α-sarcin (Santa Cruz Biotechnology, Dallas, TX, USA) and the virus and drug mixtures. After 2 h at 37 °C, the Click-iT HPG Alexa Fluor 488 Protein Synthesis Assay Kits (Invitrogen, MA, USA) were used to analyze protein synthesis according to the manufacturer’s instructions. The incorporation of the amino acid analog of methionine L-homopropargylglycine (HPG) containing Alexa Fluor 488 azide was measured using a Typhoon 9410 imager (GE Healthcare Life Sciences, MA, USA) and calculated subtracting the background level of the control well containing L-homopropargylglycine (HPG) and α-sarcin but not virus (100% incorporation).

HAdV-GFP = experiment: Thermostability assay (capsid stabilization); type: cell-based, human adenovirus; details: 50 μM, A549 cells
Protocol: HAdV-GFP (37.5 ng) was incubated with compound 16 (50 µM) or the same volume of DMSO for 1 h in complete DMEM. Parallel samples were incubated for 10 min at the indicated temperatures, cooled to r.t., and added to A549 cells on ice to synchronize the infection. After the incubation, cells were washed twice with PBS 1x to remove the nonattached virus and the excess of compound 16 and DMSO. Cells were then incubated for 24 h at 37 °C and 5% CO2 before being visualized for GFP expression in an Olympus inverted microscope Model IX71 (Hamburg, Germany) and analyzed by capturing representative images of each condition using the CellSens Dimension platform (Olympus, Hamburg, Germany).

[6] = system: human cytomegalovirus (HCMV); experiment: HCMV DNA replication assay; type: cell-based; details: HFF cells, 72 h postinfection, 10-fold IC50 of HAdV plaque assay
Protocol: The broad antiviral activity of compound 16 was tested using human cytomegalovirus (HCMV) in a DNA replication assay. To avoid the influence of newly generated viral particles from subsequent rounds of infection, HCMV DNA was extracted from HFF cells at 72 h postinfection and quantified in a single round of infection as a measurement of the DNA replication efficiency.

In the case of `O=C(NCC1CCCCC1)c1cc(Cl)ccc1O` [Compound 16, 5-Chloro-N-(cyclohexylmethyl)-2-hydroxybenzamide], the “Plaque Assay IC50” value (HAdV5-GFP [1]; HAdV5-GFP, low MOI, 293β5 cell line) is reported as “submicromolar”, the inhibition at 10 µM (HAdV5-GFP [1]; Human adenovirus sp., read-out: Plaque Assay (10 μM) (%) Inhibition) is reported as 100% and the IC50 (HAdV5-GFP [1]; Human adenovirus sp., read-out: Plaque Assay IC50) is reported as 0.78 ± 0.01 µM. The “Selectivity Index (SI)” value (HAdV5-GFP [1]; ratio of CC50 to IC50 in plaque assay) was 116.9, the CC50 at 48 h [2] was 91.2 ± 18.4 µM and the “Virus yield reduction compared to niclosamide” value (wild-type HAdV5 [3]; 16 at 10-fold IC50 versus niclosamide 5 μM) was 2.5 fold. For the same compound, the “Virus Yield Reduction” value (wild-type HAdV5 [3]; A549 cells, HAdV 100 vp/cell, 48 h, niclosamide 5 μM, 16 at 10-fold IC50, versus DMSO) was 208 fold and 208 ± 108 fold, the inhibition at 7.8 µM (HAdV-5 DNA replication) was 50% and the “Inhibition of HAdV DNA accessibility to the nucleus” value (wild-type HAdV5 [4]) was “more than 99%”. For the same compound, the “Inhibition of HAdV infection, compound added at 0 min p.i.” value (HAdV5-GFP [5]) was 95.3%, the “Inhibition of HAdV infection, compound added at 20 min p.i.” value (HAdV5-GFP [5]) was 30.7% and the HAdV-mediated endosome lysis (HAdV5) was “prevented HAdV-mediated endosome lysis”. The “GFP expression 24 h postinfection, virus heated to 48 °C” value (HAdV-GFP) was “significant levels of GFP expression”, the “GFP expression 24 h postinfection, virus heated to 52 °C” value (HAdV-GFP) was “some residual expression” and the “Decrease of total HCMV DNA compared to DMSO control” value [6] was 95%.
